# Like-named read-outs stand apart in the source and are kept apart here.
# What was measured:
# [1] = test system: LM8 cells; test: Cell growth assay (Alamar blue), LM8; type: cell-based, mouse; conditions: Mus musculus, 72 h; LM8 cells, 3 days, Alamar blue
# Protocol: (§1) HeLa, LM8, and 3T3-L1 cells were cultured for 3 days at 2.5–5×10^3 cells/well in 12-well plates with each well filled with 1 ml of DMEM-FBS (for HeLa and 3T3-L1) or MEM-α-FBS (for LM8) together with drugs at various concentrations. Then, the incubation media were discarded and the cells were washed with 1 ml of PBS(–) (20 mM phosphate buffered saline, pH 7.4) and incubated with 1 ml of fresh DMEM-FBS (HeLa and 3T3-L1) or MEM-α-FBS (LM8) containing 5% (v/v) of Alamar blue (a cell number indicator; Wako Pure Chemical Industries, Osaka, Japan) until the color changed. The relative cell number was assessed by measuring absorbance at 570 nm (reference at 595 nm) as described previously, [14]; DIF-related compounds and BODIPY-conjugated compounds hardly disturbed the cell number assessment with Alamar blue (data not shown), probably because the additive compounds were washed out when cell number was assessed. For determination of the 50% inhibitory concentration (IC50) of each drug, the cells were cultured for 3 days in the presence of each drug at various concentrations. Relative cell numbers were determined for each concentration for each drug and the IC50 was determined from the dose-response curves.
# (§2) Supplementary file pone.0072118.s001.tif: Figure S1 Effects of BODIPY-DIF-3 and CCCP on cell growth, and cellular localization of BODIPY-DIF-3 in LM8 cells. (A) Cells were incubated for 4 days with 5–20 µM of BODIPY-DIF-3 (closed circles) or 2–10 µM of CCCP (closed triangles), and relative cell number was assessed by the use of Alamar blue. Data are the mean values and SD (bars) of three independent experiments. (B) Cells were incubated for 0.5 h or 3 days with 20 µM of BODIPY-DIF-3, washed free of the additive, and observed microscopically. (C) Cells were incubated for 0.5 h with BODIPY-DIF-3 (20 µM), Hoechst (0.1 µg/ml), and MitoTracker (0.1 µM), washed free of the additives, and observed by using a high-magnification fluorescence microscope. (D) Cells were incubated for 3 days with BODIPY-DIF-3 (20 µM) and then for 0.5 h with Hoechst (0.1 µg/ml) and MitoTracker (0.1 µM). Cells were washed free of the additives and observed by using a high-magnification fluorescence microscope. (TIF) Click here for additional data file.
# [2] = test system: 3T3-L1 cells; test: Cell growth assay (Alamar blue), 3T3-L1; type: cell-based, mouse; conditions: Mus musculus, 72 h; 3T3-L1 cells, 3 days, Alamar blue
# Protocol: as §1
# as §2, with “pone.0072118.s002.tif:” for “pone.0072118.s001.tif:”, “S2” for “S1”, “3T3-L1” for “LM8”
# [3] = test system: mouse liver mitochondria; test: Mitochondrial oxygen consumption (Clark-type oxygen electrode); type: biochemical
# Protocol: Mitochondria were isolated from mouse liver (ICR; 7–10 week-old females) by differential centrifugation as described previously. Cells were homogenized in a Potter glass homogenizer with H-Buffer (250 mM sucrose, 10 mM Tris-HCl pH 7.4), and centrifuged at 800g for 1 min at 4°C. The supernatant was centrifuged at 6,000g for 5 min, and the resulting pellet, the crude mitochondrial fraction, was suspended in H-Buffer. The suspension was layered over a discontinuous sucrose gradient consisting of 1.1 M and 1.6 M sucrose in a Tris buffer (10 mM Tris-HCl pH 7.4), and centrifuged for 3 h at 90,000g at 4°C. The interface was collected in Tris buffer and centrifuged at 6,000g for 5 min. The resulting pellets were suspended in Tris buffer and used for experiments after confirming the presence of the mitochondrial marker cytochrome c.
# Mitochondrial oxygen consumption was determined using a Clark-type oxygen electrode (Strathkelvin Instruments Ltd., North Lanarkshire, Scotland) as described, [39]. The mitochondria-enriched fraction was incubated at 30°C in oxygen measurement buffer (225 mM mannitol, 75 mM sucrose, 10 mM KCl, 0.1 mM EDTA, 3 mM phosphate, 5 mM succinate, 5 mM glutamate, and 20 mM Tris-HCl pH 7.4) in the presence or absence of various concentrations of the DIF-like molecules or CCCP. After recording ‘State 4’ of the respiration reaction, an aliquot of ADP was added to a final concentration of 200 µM to induce ‘State 3’. The PC100 (100% promoting concentration) of each additive was defined as the drug concentration that doubled the basal rate of oxygen consumption during State 3, which was calculated from the dose-response plot for the rate of oxygen consumption (Figure 8).
# [4] = test system: HeLa cells; test: Cell growth assay (Alamar blue), HeLa; type: cell-based, human
# Protocol: HeLa, LM8, and 3T3-L1 cells were cultured for 3 days at 2.5–5×10^3 cells/well in 12-well plates with each well filled with 1 ml of DMEM-FBS (for HeLa and 3T3-L1) or MEM-α-FBS (for LM8) together with drugs at various concentrations. Then, the incubation media were discarded and the cells were washed with 1 ml of PBS(–) (20 mM phosphate buffered saline, pH 7.4) and incubated with 1 ml of fresh DMEM-FBS (HeLa and 3T3-L1) or MEM-α-FBS (LM8) containing 5% (v/v) of Alamar blue (a cell number indicator; Wako Pure Chemical Industries, Osaka, Japan) until the color changed. […] Relative cell numbers were determined for each concentration for each drug and the IC50 was determined from the dose-response curves.
# [5] = test system: mitochondrial respiration; design: method as in PMID 7777565; conditions: in D. discoideum; read-out: IC50 for inhibition (uncoupling) of mitochondrial respiration; cited from earlier work
# [6] = test system: calmodulin-dependent cyclic nucleotide phosphodiesterase (PDE1); design: method as in PMID 15059913; conditions: cited from earlier work
# [7] = test system: mitochondrial malate dehydrogenase (mMDH); design: method as in PMID 20173310; conditions: cited from earlier work
# [8] = test system: cyclin D1 and cyclin D3 in HeLa cells; test: Western blotting of cyclin D expression; type: cell-based, human; conditions: 20 h, DIF-3 20 µM, Bu-DIF-3 5–7.5 µM, BODIPY-DIF-3 20 µM, CCCP 10 µM, azide 0.01%
# Protocol: HeLa cells were incubated for 20 h with 1 ml of DMEM-FBS containing the indicated additives in 12-well plates (2–4×10^5 cells/well), washed twice with PBS(–), harvested by adding 100–200 µl of an SDS-sample buffer solution (in proportion to cell density: relative cell number), sonicated (heated), and used for SDS-PAGE. Western blot transfer and immunoblotting were performed as described previously, by using a primary antibody for cyclin D1, cyclin D2, cyclin D3, or GAPDH, and a second antibody, an alkaline phosphatase-conjugated anti-mouse or anti-rabbit IgG antibody. […] Visualized protein bands were then digitized and quantified by using Adobe Photoshop CS4 (version 11.0) (Adobe, San Jose, CA, USA) and ImageJ Software (version 1.4) (http://rsb.info.nih.gov/ij/).
smiles,measurement,setting,value
CCCCNC(=O)CCC1=[N+]2C(=Cc3c(C)cc(C)n3[B-]2(F)F)C=C1 [Bu-BODIPY],IC50,[1],> 20 µM
same,IC50,[2],> 20 µM
same,Effect on basal rate of O2 consumption,[3]; 1–100 µM,had no effect
same,PC100 (µM) for Mito. O2 consumption,"[3]; 100% promoting concentration: doubles the basal rate of oxygen consumption, 30°C",>100 µM
same,Effect on cell growth (relative cell number),"[4]; HeLa, 5–20 µM (Bu-BODIPY up to 20 µM), 3 days",hardly affected
same,IC50,"[4]; Homo sapiens, 72 h, HeLa cells, 3 days, Alamar blue",> 20 µM
"CCCCCC(=O)c1c(O)c(Cl)c(OC)c(Cl)c1O [DIF-1, 1-(3,5-dichloro-2,6-dihydroxy-4-methoxyphenyl)hexan-1-one, reference compound]",IC50,[5],0.54 µM
same,Inhibition of PDE1,[6],direct inhibitors of PDE1
same,Binding to and inhibition of mMDH,[7],binds to mitochondrial malate dehydrogenase (mMDH) and inhibits its activity
same,Effect on cell growth (relative cell number),"[4]; HeLa, 20 µM, 3 days",significantly suppressed
"[N-]=[N+]=[N-].[Na+] [azide, NaN3, reference compound]",Expression of cyclin D1,[8],suppressed
same,Expression of cyclin D3,[8],but not of cyclin D3
same,Effect on cell growth (relative cell number),[4],suppressed cell growth

# Source: article PMC3744471, “Mitochondria Are the Target Organelle of Differentiation-Inducing Factor-3, an Anti-Tumor Agent Isolated from Dictyostelium Discoideum” (PLoS ONE, 2013)
